Values of other authors, collected in patent US8507276B2, “Tissue culture media used as a component of cosmetics” (La Prairie Group AG, priority 2003, dated 2013).
Like-named read-outs stand apart in the source and are kept apart here.

Row | Compound | Polarity (nonpolar lipids) [mN/m] | Polarity (medium-polar lipids) [mN/m] | further results
1 | C12-13 Alkyl Lactate [Cosmacol ELI] | – | – | Polarity (polar lipids): 8.8 mN/m
2 | Propylene Glycol Dicaprylate/Dicaprate [Miglyol 840] | – | – | Polarity (polar lipids): 18.7 mN/m
3 | Octyl Cocoate [Estol 1540 EHC] | 30.0 | – | –
4 | C12-15 Alkyl Benzoate [Finsolv TN] | – | 21.8 | –
5 | Caprylic/Capric Triglyceride [Miglyol 812] | – | 21.3 | –
6 | Decyl Olivate [Lipodermanol OL] | 40.3 | – | –
7 | CCCCCCCCOC(=O)OCCCCCCCC [Cetiol CC, Dicarpylyl Carbonate] | 31.7 | – | –
8 | Cetearyl Isononanoate [Cetiol SN] | – | 28.6 | –
